Laboratory results as given in patent US12076444B2, “Methods and systems for depositing active ingredients on substrates” (Purdue Research Foundation, priority 2015, dated 2024).
Read-outs that look alike come from different tables or passages of the source.

Tests used:
[1] = API particle skeletal (true) density, helium gas pycnometry; format: physicochemical; conditions: mean of four powder samples, ambient about 22° C.
Method: The AccuPyc II 1340 Gas Displacement Pycnometry System (Micromeritics Instrument Corporation, Norcross, Ga.) was used to determine the skeletal density of the micronized acetaminophen powder. The AccuPyc II 1340 instrument determines the volume occupied by powder sample, and with knowledge of the sample mass (determined on a XS105 DualRange (Mettler Toledo, Switzerland)) the skeletal density is calculated; purge cycles function to clear the chamber of residual volatile species and occur prior to the measurement cycles. Helium gas was used as the measurement gas, and the following instrument specifications were used in each powder sample: 10 purges (purge fill pressure 19.5 psig), 10 cycles (cycle fill pressure 19.5 psig), pressure equilibration rate 0.0050 psig/min, 3.5 cm^3 cell volume. Performed at ambient conditions of 22° C. and 52% relative humidity, the density reported here corresponds to the mean value obtained from measurement of four powder samples. The density of micronized acetaminophen powder was determined to be 1.3285 g/cm^3.
(§1) Skeletal density was determined by the same procedure described in Example 31; testing was performed at ambient conditions of 22° C. and 51% relative humidity. The density reported here corresponds to the mean value obtained from measurement of four powder samples; the density of semi-fine acetaminophen powder was determined to be 1.3274 g/cm^3.
as §1, with “22.6°” for “22°”, “53%” for “51%”, “mefenamic acid” for “semi-fine acetaminophen”, “1.2706 g/cm^3” for “1.3274 g/cm^3.”

[2] = API particle size, static image analysis (Malvern Morphologi G3-ID); format: physicochemical; conditions: dry powder
Method: The micronized acetaminophen particle size distribution was obtained using the Malvern Morphologi G3-ID, which employs static image analysis to determine morphology. Powder samples of 7 mm^3 were obtained using a standard scoop, transferred to the attached dispersion unit (operated with 0.1 bar pressure and 60 second dispersion cycle) and analyzed at 20× magnification.
Particle morphology was determined in the same manner described in Example 33, but at a magnification of 5×.

[3] = API powder bulk density, tapped density tester; format: physicochemical
Method: In order to determine the solid volume fractions under which the mixtures of the micronized acetaminophen powder and NEOBEE® 895 would flow as a suspension, bulk density measurements were taken using the 350 Tapped Density Tester (Agilent Technologies, Santa Clara, Calif.), housed in an acoustic cabinet. The test was performed in accordance with ASTM standard D7481-09 (equivalent to USP Method 1) using a 100 mL graduated cylinder with drop height of 14±2 mm at a rate of 300 drops per minute. The mass of the powder sample was determined on a MS8001S NewClassic MF (Mettler Toledo, Switzerland) resulting in a bulk density of 0.36 g/cm^3 after 6000 taps, measured at 21.9° C. and 40% relative humidity.
Bulk density was determined by the same procedure described in Example 32; testing was performed at 22.1° C. and 45% relative humidity.

[4] = Raman microscopy of dosage forms; format: physicochemical
Method: After deposition of the drops onto the film, the crystal structure of the mevastatin-PEG 3350 melt formulations were analyzed with a Raman RXN1 Microprobe (Kaiser Optical Systems, MI). First the spectra of pure mevastatin and PEG 3350 solid dispersions were obtained. Mevastatin and PEG 3350 powders were heated above their melting temperatures, to 152° C. and 60° C., respectively. The melts of pure mevastatin and pure PEG 3350 were solidified at room temperature and then analyzed to obtain the spectra of pure compounds. The spectra of the melt formulation consisting of 15% mevastatin and 85% PEG 3350 were obtained by analyzing the drops of the melt formulation deposited using the dropwise additive manufacturing process.
A Thermo Scientific DRX Raman Microscope equipped with a 532 nm laser is used to analyze the solid state form of the drug present in the melt formulations. First, the spectra of pure crystalline celecoxib and gelucire 44/14 solid dispersion are obtained. Pure celecoxib and pure gelucire 44/14 are analyzed to obtain the spectra of pure compounds. […]
The form of celecoxib in the dosage forms is analyzed with a Raman microscope to investigate the effect of gelucire on crystallization of celecoxib within the deposits.

[5] = 15% naproxen 85% PEG 3350 melt dosage forms

SMILES | Skeletal (true) density [1] [g/mL] | Sauter mean diameter [2] [μm] | d90 [2] [μm] | Bulk density ([3]; after 6000 taps) [g/mL] | Bulk density ([3]; after 8000 taps) [g/mL] | Physical form of the drug in the dosage forms (Raman) ([4]; 15% mevastatin 85% PEG 3350 melt dosage forms) | Physical form of the drug in the dosage forms (X-ray diffraction) [5] | Physical form of the drug in the dosage forms (X-ray diffraction) (15% naproxen 85% Pluronic F38 melt dosage forms) | Physical form of the drug in the dosage forms (Raman) [4, 5]
Cc1cccc(Nc2ccccc2C(=O)O)c1C [mefenamic acid] | 1.2706 | 88.83 | 400.5 | 0.7423 |  |  |  |  | 
CC(=O)Nc1ccc(O)cc1 [semi-fine acetaminophen, acetaminophen (paracetamol)] | 1.3274 | 47.66 | 208.8 |  | 0.46 |  |  |  | 
CC(=O)Nc1ccc(O)cc1 [micronized acetaminophen, acetaminophen (paracetamol)] | 1.3285 | 22.05 | 75.29 | 0.36 |  |  |  |  | 
CC[C@H](C)C(=O)O[C@H]1CCC=C2C=C[C@H](C)[C@H](CC[C@@H]3C[C@@H](O)CC(=O)O3)[C@H]21 [mevastatin] |  |  |  |  |  | crystalline |  |  | 
COc1ccc2cc([C@H](C)C(=O)O)ccc2c1 [naproxen] |  |  |  |  |  |  | crystalline | crystalline | crystalline
